By IC50 is commonly meant the point on the concentration scale where inhibition reaches its midpoint. As a reminder, the viability, T/C is the ratio of treated to control.

This assay has as its system Rh18 complex spheroid viability, percent test/control. Briefly: Anticancer human tumor Rh18 cell line growth inhibition [Asc].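 On all read-outs here: spheroids exposed to compound for 7 days.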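 On viability, T/C: 100% = DMSO vehicle control wells.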 To be noted: for viability, T/C: stronger effect = lower value. The method in brief: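 Tumor cells were grown as multicellular spheroids with stromal HUVEC and mesenchymal stem cells and treated singly or in combination. Concentrations fell in half-log steps from the clinical Cmax, or from 10 microM where none was known.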

Values joined by “and” are separate entries in the source; they are usually repeats but may differ in a detail not shown here. Equal values may be shown once. A value given as a limit tells only on which side of the number the result lay.

With `CCN1CCN(Cc2ccc(Nc3ncc(F)c(-c4cc(F)c5nc(C)n(C(C)C)c5c4)n3)nc2)CC1` + Cc1c(S(C)(=O)=O)c(-c2cc(F)cc(N3CCN(c4ccc(NS(=O)(=O)c5ccc(NC(CCN6CCC(C(=O)OCCCP(=O)(O)O)CC6)CSc6ccccc6)c(S(=O)(=O)C(F)(F)F)c5)cc4)CC3)c2)c(-c2ccc(Cl)cc2)n1C(C)C, the IC50 reads like this: (curve of first compound, second compound 0.1 µM) less than 3.16 nM; (curve of first compound, second compound 0.316 µM) less than 3.16 nM; (curve of first compound, second compound 1 µM) less than 3.16 nM; (curve of first compound, second compound 3.16 µM) less than 3.16 nM; (curve of first compound, second compound 10 µM) less than 3.16 nM. The viability, T/C by setting is: (second compound 0.1 µM, first compound 0.00316 µM) 12.9%; (second compound 0.1 µM, first compound 0.01 µM) 10.8%; (second compound 0.1 µM, first compound 0.0316 µM) 12.1%; (second compound 0.1 µM, first compound 0.1 µM) 10.3%; (second compound 0.1 µM, first compound 0.316 µM) 17.6%; (second compound 0.1 µM, first compound 1 µM) 16.5%. For the same compound, the viability, T/C reads like this: (second compound 0.316 µM, first compound 0.00316 µM) 9.27%; (second compound 0.316 µM, first compound 0.01 µM) 8.57%; (second compound 0.316 µM, first compound 0.0316 µM) 8.42%; (second compound 0.316 µM, first compound 0.1 µM) 8.33%; (second compound 0.316 µM, first compound 0.316 µM) 9.57%; (second compound 0.316 µM, first compound 1 µM) 13.1%. Also, the viability, T/C (second compound 1 µM, first compound 0.00316 µM) is 7.77%; the viability, T/C (second compound 1 µM, first compound 0.01 µM) was 7.58%; the viability, T/C (second compound 1 µM, first compound 0.0316 µM) was 7.78%; the viability, T/C (second compound 1 µM, first compound 0.1 µM) is 7.11%; the viability, T/C (second compound 1 µM, first compound 0.316 µM) is 8.27%; the viability, T/C (second compound 1 µM, first compound 1 µM) is 11.2%. For the same compound, the viability, T/C was 5.69% (second compound 3.16 µM, first compound 0.00316 µM); 6.84% (second compound 3.16 µM, first compound 0.01 µM); 6.29% (second compound 3.16 µM, first compound 0.0316 µM); 6.51% (second compound 3.16 µM, first compound 0.1 µM); 6.86% (second compound 3.16 µM, first compound 0.316 µM); 8.35% (second compound 3.16 µM, first compound 1 µM). Besides, the viability, T/C (second compound 10 µM, first compound 0.00316 µM) is 4.28%; the viability, T/C (second compound 10 µM, first compound 0.01 µM) was 4.29%; the viability, T/C (second compound 10 µM, first compound 0.0316 µM) is 5.21%; the viability, T/C (second compound 10 µM, first compound 0.1 µM) is 7.08%; the viability, T/C (second compound 10 µM, first compound 0.316 µM) was 6.28%; the viability, T/C (second compound 10 µM, first compound 1 µM) is 10.4%.

Regarding `C#Cc1c(F)ccc2cc(O)cc(-c3ncc4c(N5CC6CCC(C5)N6)nc(OCC56CCCN5CC(F)C6)nc4c3F)c12` (centres undefined), the viability, T/C is 79.3% and 89.2% and 129% (compound 0.0316 µM); 74.3% and 82.3% and 122% (compound 0.1 µM); 71.5% and 63.9% and 81.2% (compound 0.316 µM); 91.2% and 75.4% and 66.3% (compound 1 µM); 87.4% and 64.3% and 106% (compound 3.16 µM); 43.4% and 60.4% and 67.7% (compound 10 µM). Besides, the IC50 (curve of compound) is 8120 nM and > 10000 nM.

With `O=C(c1ccc(F)c(F)c1Nc1ccc(I)cc1F)N1CC(O)([C@@H]2CCCCN2)C1` + CCN1C(C(=O)NC23CCC(C(=O)O)(CC2)CC3)C(c2cccc(Cl)c2F)C2(C(=O)Nc3cc(Cl)ccc32)C12CCCCC2, the IC50 is less than 3.16 nM (curve of first compound, second compound 0.03 µM); less than 3.16 nM (curve of first compound, second compound 0.0949 µM); less than 3.16 nM (curve of first compound, second compound 0.3 µM); less than 3.16 nM (curve of first compound, second compound 0.949 µM); less than 3.16 nM (curve of first compound, second compound 3 µM). Further, the viability, T/C by setting is: (second compound 0.03 µM, first compound 0.00316 µM) 35.4%; (second compound 0.03 µM, first compound 0.01 µM) 36.8%; (second compound 0.03 µM, first compound 0.0316 µM) 31.1%; (second compound 0.03 µM, first compound 0.1 µM) 33.5%; (second compound 0.03 µM, first compound 0.316 µM) 23.8%; (second compound 0.03 µM, first compound 1 µM) 6.29%. For the same compound, the viability, T/C (second compound 0.0949 µM, first compound 0.00316 µM) was 22.7%; the viability, T/C (second compound 0.0949 µM, first compound 0.01 µM) was 20.1%; the viability, T/C (second compound 0.0949 µM, first compound 0.0316 µM) is 20.1%; the viability, T/C (second compound 0.0949 µM, first compound 0.1 µM) is 13.9%; the viability, T/C (second compound 0.0949 µM, first compound 0.316 µM) is 7.94%; the viability, T/C (second compound 0.0949 µM, first compound 1 µM) was 1.48%. Further, the viability, T/C reads like this: (second compound 0.3 µM, first compound 0.00316 µM) 13%; (second compound 0.3 µM, first compound 0.01 µM) 11.5%; (second compound 0.3 µM, first compound 0.0316 µM) 10.7%; (second compound 0.3 µM, first compound 0.1 µM) 8.42%; (second compound 0.3 µM, first compound 0.316 µM) 3.11%; (second compound 0.3 µM, first compound 1 µM) 1.29%. Also, the viability, T/C reads like this: (second compound 0.949 µM, first compound 0.00316 µM) 9.01%; (second compound 0.949 µM, first compound 0.01 µM) 11.2%; (second compound 0.949 µM, first compound 0.0316 µM) 9.23%; (second compound 0.949 µM, first compound 0.1 µM) 5.03%; (second compound 0.949 µM, first compound 0.316 µM) 0.89%; (second compound 0.949 µM, first compound 1 µM) 0.92%. Also, the viability, T/C reads like this: (second compound 3 µM, first compound 0.00316 µM) 8.3%; (second compound 3 µM, first compound 0.01 µM) 11.4%; (second compound 3 µM, first compound 0.0316 µM) 10.8%; (second compound 3 µM, first compound 0.1 µM) 2.33%; (second compound 3 µM, first compound 0.316 µM) 0.83%; (second compound 3 µM, first compound 1 µM) 1.01%.

For the compound `C=CC(=O)N1CCN(c2nc(=O)n(-c3c(C)ccnc3C(C)C)c3nc(-c4c(O)cccc4F)c(F)cc23)C(C)C1` (centres undefined), the viability, T/C by setting is: (compound 0.0316 µM) 117% and 122% and 92.1%; (compound 0.1 µM) 95.2% and 169% and 115%; (compound 0.316 µM) 106% and 125% and 109%; (compound 1 µM) 118% (2×) and 104%; (compound 3.16 µM) 133% and 137% and 106%; (compound 10 µM) 115% and 89.8% and 92%. Moreover, the IC50 (curve of compound) is greater than 10000 nM.
